Experimental findings from patent US8609661B2, “Pyrimido-pyrrolo-quinoxalinedione inhibitors of cystic fibrosis transmembrane conductance regulator protein and uses therefor” (The Regents of the University of California, priority 2009, dated 2013) are described below.

The target in the test is T1, human wildtype CFTR (Homo sapiens, UniProt P13569).
T1 construct: expressed in transfected cells; host or cells: Fischer rat thyroid (FRT) cells
Put plainly: Fluorescence platereader assay of CFTR-mediated iodide influx (YFP quenching) in FRT cells. It is filed as cell-based. The following applies: for inhibition at 5 µM / inhibition at 25 µM: FRT; for IC50: apparent IC50 from concentration-inhibition data, fluorescence platereader assay. The procedure:
A. Cell lines and compounds—Fischer rat thyroid (FRT) cells co-expressing human wildtype CFTR and the halide indicator YFP-H148Q/1152L were generated as described (see, e.g., Ma et al., J. Clin. Invest. 110:1651-1658 (2002)). Cells were plated in 96-well black-walled microplates (Corning Costar) at a density of 20,000 cells per well in Coon's modified F12 medium supplemented with 5% fetal calf serum, 2 mM L-glutamine, 100 U/mL penicillin, and 100 μg/ml streptomycin. Assays were performed at 48 h after plating the cells when the cells were just confluent. For some experiments, measurements were made using T84 human intestinal epithelial cells and for other experiments, measurements were obtained using primary cultures of human bronchial epithelial cells, which were obtained and grown essentially as previously described (see, e.g., 3 and 27).
B. Compound Screening—Assays were performed using an automated screening platform (Beckman) equipped with FLUOStar fluorescence platereaders (BMG Lab Technologies, Offenburg, Germany) as described (see Ma et al., supra). Each well of a 96-well plate containing FRT cells was washed 3 times in PBS (300 μL/wash), leaving 50 μL PBS. […] After 15 min, 96-well plates were transferred to a plate reader for fluorescence assay. Each well was assayed individually for CFTR-mediated iodide influx by recording fluorescence continuously (200 ms per point) for 2 s (baseline) and then for 10 s after rapid addition of 160 μL of isosmolar PBS in which 137 mM chloride was replaced by iodide. The initial rate of iodide influx was computed from fluorescence data by non-linear regression.
Collections of synthetic and natural compounds were screened according to the screening procedures described in Example 2. A cell-based fluorescence assay was used in which CFTR inhibitors were identified by reduced iodide influx in FRT cells co-expressing human CFTR and a YFP halide sensor. CFTR was maximally activated by a mixture of agonists having different activating mechanisms. Inhibition of iodide influx was observed as reduced YFP fluorescence quenching in response to rapid iodide addition to each well of 96-well plates. […]

Where [1] appears, read: read-out: % inhibition at 25/5 μM (5 μM value), Table 1, 5 μM compound.
Where [2] appears, read: read-out: % inhibition at 25/5 μM (25 μM value), Table 1, 25 μM compound.
[3] abbreviates: Table 2, screening, 5 μM, read-out: % Inhibition at 5 μM.
The mark [4] stands for this setting: Table 2, screening, 25 μM, read-out: % Inhibition at 25 μM.

Where two headings read alike, the source gives them in different places.

T1 sequence (P13569 whole entry): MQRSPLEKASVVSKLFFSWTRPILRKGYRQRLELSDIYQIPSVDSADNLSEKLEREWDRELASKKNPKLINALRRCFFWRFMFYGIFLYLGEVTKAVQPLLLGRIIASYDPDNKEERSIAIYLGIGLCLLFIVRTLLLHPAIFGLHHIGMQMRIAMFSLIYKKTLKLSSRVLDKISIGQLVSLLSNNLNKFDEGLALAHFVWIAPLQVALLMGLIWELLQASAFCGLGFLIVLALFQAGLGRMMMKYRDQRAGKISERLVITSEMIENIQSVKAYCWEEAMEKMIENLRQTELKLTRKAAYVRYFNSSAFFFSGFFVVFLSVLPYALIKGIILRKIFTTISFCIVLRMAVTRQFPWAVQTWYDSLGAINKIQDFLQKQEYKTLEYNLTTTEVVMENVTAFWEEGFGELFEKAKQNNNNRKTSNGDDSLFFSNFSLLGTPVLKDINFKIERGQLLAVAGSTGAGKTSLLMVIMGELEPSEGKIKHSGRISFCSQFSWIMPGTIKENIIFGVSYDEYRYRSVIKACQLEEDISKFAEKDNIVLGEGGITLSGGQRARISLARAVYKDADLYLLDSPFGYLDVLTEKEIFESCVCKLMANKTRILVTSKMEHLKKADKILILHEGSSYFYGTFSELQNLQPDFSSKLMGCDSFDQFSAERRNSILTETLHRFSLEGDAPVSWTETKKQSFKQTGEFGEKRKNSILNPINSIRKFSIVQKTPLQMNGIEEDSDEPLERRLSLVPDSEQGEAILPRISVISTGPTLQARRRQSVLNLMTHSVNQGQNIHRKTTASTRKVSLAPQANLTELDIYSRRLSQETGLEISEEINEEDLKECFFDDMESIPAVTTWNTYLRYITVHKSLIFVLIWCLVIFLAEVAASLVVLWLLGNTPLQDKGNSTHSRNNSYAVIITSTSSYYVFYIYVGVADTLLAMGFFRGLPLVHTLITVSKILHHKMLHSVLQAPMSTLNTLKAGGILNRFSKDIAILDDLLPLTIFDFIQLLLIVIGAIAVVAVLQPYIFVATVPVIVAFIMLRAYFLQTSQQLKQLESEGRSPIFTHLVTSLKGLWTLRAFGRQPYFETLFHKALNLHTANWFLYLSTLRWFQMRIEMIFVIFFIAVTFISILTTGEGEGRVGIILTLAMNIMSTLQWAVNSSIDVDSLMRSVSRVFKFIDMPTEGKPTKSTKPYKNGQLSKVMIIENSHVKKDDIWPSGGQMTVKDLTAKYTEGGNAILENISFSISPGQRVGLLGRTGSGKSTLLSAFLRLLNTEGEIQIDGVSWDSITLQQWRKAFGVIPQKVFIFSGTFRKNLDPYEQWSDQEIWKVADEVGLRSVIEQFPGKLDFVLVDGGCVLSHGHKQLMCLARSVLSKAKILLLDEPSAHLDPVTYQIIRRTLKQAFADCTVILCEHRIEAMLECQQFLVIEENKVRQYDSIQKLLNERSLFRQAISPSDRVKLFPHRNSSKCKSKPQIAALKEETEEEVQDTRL

A word on the IC50: it is the concentration needed to halve the response being measured. Regarding `Cc1cccc(-c2c3c(=O)n(C)c(=O)n(C)c3c3n2-c2ccccc2NC3c2ccccc2F)c1` (stereo not drawn) [PPQ-215, 7,9-Dimethyl-11-(3-methylphenyl)-6-(2-fluorophenyl)-5,6-dihydro-pyrimido[4′,5′-3,4]pyrrolo[1,2-a]quinoxaline-8,10-(7H,9H)-dione], the half-inhibitory concentration (IC50) came out at 2.5 µM. Under setting [1], the inhibition at 5 µM came out at 67%. Under setting [2], the inhibition at 25 µM was determined as 80%. In addition, under setting [3], the inhibition at 5 µM is 67%. In addition, the inhibition at 25 µM under setting [4] amounted to 80%.
Consider `Cc1cc2c(cc1C)-n1c(-c3ccccc3)c3c(=O)n(C)c(=O)n(C)c3c1C(c1ccc(O)cc1O)N2` (stereo not drawn) [PPQ-235, 2,3,7,9-Tetramethyl-11-phenyl-6-(2,4-dihydroxyphenyl)-5,6-dihydro-pyrimido[4′,5′-3,4]pyrrolo[1,2-a]quinoxaline-8,10-(7H,9H)-dione], for which, under setting [3], the inhibition at 5 µM was 12%. Also, the inhibition at 25 µM under setting [4] came out at 80%.
As to `Cn1c(=O)c2c(-c3ccccc3F)n3c(c2n(C)c1=O)C(c1cccs1)Nc1ccccc1-3` (stereo not drawn) [PPQ-116, 7,9-Dimethyl-11-(2-fluorophenyl)-6-(thienyl-2-yl)-5,6-dihydro-pyrimido[4′,5′-3,4]pyrrolo[1,2-a]quinoxaline-8,10-(7H,9H )-dione], the inhibition at 5 µM under setting [3] stood at 47%. Also, under setting [4], the inhibition at 25 µM is 76%.
With `Cc1ccc(C2Nc3ccccc3-n3c(-c4ccccc4C)c4c(=O)n(C)c(=O)n(C)c4c32)cc1` (stereo not drawn), under setting [3], the inhibition at 5 µM was determined as 13%. For the same compound, under setting [4], the inhibition at 25 µM was found to be 38%.
Regarding `COc1cccc(C2Nc3ccccc3-n3c(-c4ccccc4)c4c(=O)n(C)c(=O)n(C)c4c32)c1` (stereo not drawn) [PPQ-204, 7,9-Dimethyl-11-phenyl-6-(3-methoxyphenyl)-5,6-dihydro-pyrimido[4′,5′-3,4]pyrrolo[1,2-a]quinoxaline-8,10-(7H,9H)-dione], the concentration for half-maximal inhibition (IC50) was determined as 1.7 µM. In addition, under setting [1], the inhibition at 5 µM came to 63%. Further, the inhibition at 25 µM under setting [2] is 86%. Moreover, under setting [3], the inhibition at 5 µM amounted to 63%. The inhibition at 25 µM under setting [4] amounted to 86%.
For `COc1cccc(C2Nc3ccccc3-n3c(-c4ccc(Cl)cc4)c4c(=O)n(C)c(=O)n(C)c4c32)c1` (stereo not drawn), the inhibition at 5 µM under setting [3] is less than 10%. Moreover, under setting [4], the inhibition at 25 µM worked out at 41%.
For `CCOc1ccccc1C1Nc2ccccc2-n2c(-c3cccc(C)c3)c3c(=O)n(C)c(=O)n(C)c3c21` (stereo not drawn) [PPQ-231, 7,9-Dimethyl-11-(3-methylphenyl)-6-(2-ethoxyphenyl)-5,6-dihydro-pyrimido[4′,5′-3,4]pyrrolo[1,2-a]quinoxaline-8,10-(7H,9H)-dione], in that order: less than 10% and 87%.
For `Cc1ccc(C2Nc3ccccc3-n3c(-c4ccccc4C)c4c(=O)n(C)c(=O)n(C)c4c32)o1` (stereo not drawn) [PPQ-103, 7,9-Dimethyl-11-(2-methylphenyl)-6-(5-methylfuran-2-yl)-5,6-dihydro-pyrimido[4′,5′-3,4]pyrrolo[1,2-a]quinoxaline-8,10-(7H,9H)-dione], the concentration for half-maximal inhibition (IC50) came to 0.8 µM. Moreover, the inhibition at 5 µM under setting [3] amounted to 63%. Further, under setting [4], the inhibition at 25 µM was more than 95%.
Consider `Cc1cccc(-c2c3c(=O)n(C)c(=O)n(C)c3c3n2-c2ccccc2NC3c2ccc(F)cc2)c1` (stereo not drawn) [PPQ-238, 7,9-Dimethyl-11-(3-methylphenyl)-6-(4-fluorophenyl)-5,6-dihydro-pyrimido[4′,5′-3,4]pyrrolo[1,2-a]quinoxaline-8,10-(7H,9H)-dione], for which the inhibition at 5 µM under setting [3] was 22%. Moreover, the inhibition at 25 µM under setting [4] was found to be 57%.
As to `Cc1ccccc1-c1c2c(=O)n(C)c(=O)n(C)c2c2n1-c1ccccc1NC2c1ccccc1` (stereo not drawn) [PPQ-218, 7,9-Dimethyl-11-(2-methylphenyl)-6-phenyl-5,6-dihydro-pyrimido[4′,5′-3,4]pyrrolo[1,2-a]quinoxaline-8,10-(7H,9H)-dione], the IC50 was determined as 5 µM. Moreover, the inhibition at 5 µM under setting [3] was 41%. Also, the inhibition at 25 µM under setting [4] was 94%.
As to `Cc1ccccc1-c1c2c(=O)n(C)c(=O)n(C)c2c2n1-c1ccccc1NC2c1cccc(F)c1F` (stereo not drawn) [PPQ-221, 7,9-Dimethyl-11-(2-methylphenyl)-6-(2,3-difluorophenyl)-5,6-dihydro-pyrimido[4′,5′-3,4]pyrrolo[1,2-a]quinoxaline-8,10-(7H,9H)-dione], the inhibition at 5 µM under setting [3] was 50%. The inhibition at 25 µM under setting [4] is more than 95%.
Turning to `Cc1ccc(-c2c3c(=O)n(C)c(=O)n(C)c3c3n2-c2ccccc2NC3c2ccc(C)cc2O)cc1` (stereo not drawn) [PPQ-220, 7,9-Dimethyl-11-(4-methylphenyl)-6-(2-hydroxy-4-methylphenyl)-5,6-dihydro-pyrimido[4′,5′-3,4]pyrrolo[1,2-a]quinoxaline-8,10-(7H,9H)-dione], under setting [3], the inhibition at 5 µM was less than 10%. The inhibition at 25 µM under setting [4] is more than 95%.
For the compound `Cn1c(=O)c2c(-c3ccccc3F)n3c(c2n(C)c1=O)C(c1cccc(Cl)c1)Nc1ccccc1-3` (stereo not drawn) [PPQ-214, 7,9-Dimethyl-11-(2-fluorophenyl)-6-(3-chlorophenyl)-5,6-dihydro-pyrimido[4′,5′-3,4]pyrrolo[1,2-a]quinoxaline-8,10-(7H,9H)-dione], the 50% inhibitory concentration (IC50) was determined as 2.5 µM. In addition, the inhibition at 5 µM under setting [1] is 70%. Besides, under setting [3], the inhibition at 5 µM amounted to 70%. In addition, the inhibition at 25 µM under setting [4] is more than 95%.
Turning to `Cc1ccc(C(=O)Nc2ccccc2-n2cc3c(c2-c2ccccc2)c(=O)n(C)c(=O)n3C)o1` [PPQ-102b, N-(2-(1,3-dimethyl-2,4-dioxo-5-phenyl-3,4-dihydro-1H-pyrrolo[3,4-d]pyrimidin-6(2H)-yl)phenyl)-5-methylfuran-2-carboxamide], the “CFTR inhibition activity” value (structure-activity analysis) is reported as “abolished CFTR inhibition activity”.
For the compound `Cn1c(=O)c2c(-c3ccccc3F)n3c(c2n(C)c1=O)C(c1ccc(O)cc1O)Nc1ccccc1-3` (stereo not drawn), the inhibition at 5 µM under setting [3] was less than 10%. Under setting [4], the inhibition at 25 µM stood at 36%.
Turning to `Cc1ccccc1-c1c2c(=O)n(C)c(=O)n(C)c2c2n1-c1ccccc1NC2c1ccccc1F` (stereo not drawn) [PPQ-234, 7,9-Dimethyl-11-(2-methylphenyl)-6-(2-fluorophenyl)-5,6-dihydro-pyrimido[4′,5′-3,4]pyrrolo[1,2-a]quinoxaline-8,10-(7H,9H)-dione], the inhibition at 5 µM under setting [3] turned out to be 53%. Besides, the inhibition at 25 µM under setting [4] was found to be 81%.
For the compound `Cn1c(=O)c2c(-c3ccccc3F)n3c(c2n(C)c1=O)C(c1ccc(F)cc1)Nc1ccccc1-3` (stereo not drawn) [PPQ-233, 7,9-Dimethyl-11-(2-fluorophenyl)-6-(4-fluorophenyl)-5,6-dihydro-pyrimido[4′,5′-3,4]pyrrolo[1,2-a]quinoxaline-8,10-(7H,9H)-dione], the inhibition at 5 µM under setting [3] was found to be 28%. In addition, under setting [4], the inhibition at 25 µM was found to be 82%.
For `Cn1c(=O)c2c(-c3ccccc3)n3c(c2n(C)c1=O)C(c1cccc(F)c1)Nc1ccccc1-3` (stereo not drawn) [PPQ-239, 7,9-Dimethyl-11-phenyl-6-(3-fluorophenyl)-5,6-dihydro-pyrimido[4′,5′-3,4]pyrrolo[1,2-a]quinoxaline-8,10-(7H,9H)-dione], the inhibition at 5 µM under setting [3] was 45%. Further, the inhibition at 25 µM under setting [4] was determined as 76%.
As to `Cc1ccccc1C1Nc2ccccc2-n2c(-c3ccccc3)c3c(=O)n(C)c(=O)n(C)c3c21` (stereo not drawn), the inhibition at 5 µM under setting [3] is 13%. In addition, the inhibition at 25 µM under setting [4] stood at 41%.
Take `C=CCc1cccc(C2Nc3ccccc3-n3c(-c4ccccc4)c4c(=O)n(C)c(=O)n(C)c4c32)c1O` (stereo not drawn): the inhibition at 5 µM under setting [3] is less than 10%. Also, the inhibition at 25 µM under setting [4] is 31%.
In the case of `Cc1ccc(-c2c3c(=O)n(C)c(=O)n(C)c3c3n2-c2ccccc2NC3c2cccs2)cc1` (stereo not drawn), the inhibition at 5 µM under setting [3] was less than 10%. For the same compound, the inhibition at 25 µM under setting [4] turned out to be 35%.
In the case of `Cc1cccc(-c2c3c(=O)n(C)c(=O)n(C)c3c3n2-c2ccccc2NC3c2ccc(O)c(O)c2)c1` (stereo not drawn) [PPQ-243, 7,9-Dimethyl-11-(3-methylphenyl)-6-(3,4-dihydroxyphenyl)-5,6-dihydro-pyrimido[4′,5′-3,4]pyrrolo[1,2-a]quinoxaline-8,10-(7H,9H)-dione], the inhibition at 5 µM under setting [3] worked out at 12%. The inhibition at 25 µM under setting [4] amounted to 72%.
As for `COc1ccccc1C1Nc2cc(C)c(C)cc2-n2c(-c3ccccc3)c3c(=O)n(C)c(=O)n(C)c3c21` (stereo not drawn), the inhibition at 5 µM under setting [3] was less than 10%. Under setting [4], the inhibition at 25 µM was 47%.
With `Cc1ccccc1-c1c2c(=O)n(C)c(=O)n(C)c2c2n1-c1ccccc1NC2c1cccc(F)c1` (stereo not drawn) [PPQ-229, 7,9-Dimethyl-11-(2-methylphenyl)-6-(3-fluorophenyl)-5,6-dihydro-pyrimido[4′,5′-3,4]pyrrolo[1,2-a]quinoxaline-8,10-(7H,9H)-dione], the inhibition at 5 µM under setting [3] stood at 57%. The inhibition at 25 µM under setting [4] stood at 90%.
